Reference: article PMC5845537 (Frontiers in Pharmacology, 2018)
Like-named read-outs stand apart in the source and are kept apart here.

Experiments:
C57BL/6NCrlBr mice = test: Mouse object recognition (OR) task after subchronic PCP; type: in vivo
Procedure: Subchronic PCP treatment: The subPCP administration regimen used in rats was conducted as described in ([Goetghebeur and Dias, 2009]), which is a reliable method for inducing deficits in our hands. Rats in the subPCP experiments received injections of 5 mg/mL PCP or vehicle (saline) s.c. at a 1 mL/kg injection volume twice per day for 7 days. […] The mouse subPCP regimen was conducted as described in [Pedersen et al. (2014)]. Briefly, mice received vehicle or PCP (1.3 mg/mL concentration, 10 mL/kg injection volume) s.c once per day for 14 days followed by a 7-day washout prior to experimentation.
Object placement and OR tasks in mice were executed in Perspex boxes measuring 40 × 40 cm with dark gray walls and a white floor. The tests were conducted during the light phase, yet in a subdued light (≈20 lux) and with the radio turned on in the background. Each trial was recorder by a camera mounted above the test arenas and later scored manually.
Objects in the mouse OP task consisted of small stork sculptures made of plaster, which were 11.5 cm in height, with a roughly rectangle-shaped base 7.5 cm in length and 4.8 cm in width. For the mouse OR task, objects consisted of (1) small cylindrical pepper mills (purchased empty, having never contained spice) made of clear plastic (10.5 cm in height, 4.5 cm diameter), and (2) small salt shakers made of light blue glass (again, purchased empty; 11.5 cm in height, 4.5 cm diameter). […]
The primary dependent measure for the OR and object placement tasks was a novel object or novel placement preference score, which were calculated from raw object investigation times using the following equation: Preference Score = ITN/(ITN + ITF)^∗100, where ITN represents the investigation time for the novel object or placement, and ITF represents the investigation for the familiar object or placement. Total exploration times from the information and test trials were analyzed for OP and OR experiments. Preference score and total exploration time data was analyzed for treatment group differences using a one-way between-subjects ANOVA. […]

5-HT7 receptors = conditions: 2014, cited from earlier work
5-HT1B receptors = conditions: 2014, cited from earlier work
5-HT3 receptor [1] = test: 5-HT3 receptor occupancy (literature); type: in vivo, rat; conditions: 0.22 g/kg subchronic dose; estimated based on known SERT:5-HT3 receptor occupancy relationships; ref Leiser et al., 2014
rodent 5-HT7 receptors = conditions: rodent vs human; no reference given; cited from earlier work
SERT = conditions: cited from earlier work
5-HT3 receptor [2] = conditions: 2014, cited from earlier work
[3] = 10 mg/kg 1 h s.c., full occupancy, ref Leiser et al.
[4] = subchronic dose used in the mouse OR and object placement tasks, ref Wallace et al., Waller et al., 2017

Row | SMILES | novel object preference score (C57BL/6NCrlBr mice; subPCP/veh vs control mice, PCP 13 mg/kg s.c. once per day 14 days, 7-day washout, p < 0.001) | occupancy at 5-HT7 receptors (5-HT7 receptors; 10 mg/kg 1 h s.c., ref Leiser et al.) | occupancy at 5-HT7 receptors (5-HT7 receptors; subchronic dose used in the mouse OR and object placement tasks, expected, ref Wallace et al., Waller et al., 2017) | occupancy at 5-HT1B receptors (5-HT1B receptors; [3]) [%] | occupancy at 5-HT1B receptors (5-HT1B receptors; [4]) | occupancy at 5-HT3 receptors (5-HT3 receptor [1]) | lesser affinity at rodent 5-HT7 receptors by comparison to humans (rodent 5-HT7 receptors) | occupancy at the SERT (SERT; 1 mg/kg acute dose, ref Leiser et al., 2014) | occupancy at SERT (SERT; 10 mg/kg 1 h s.c., full occupancy, ref Leiser et al., 2014) [%] | occupancy at the SERT (SERT; 0.22 g/kg subchronic dose (food), ref Waller et al., 2017) | occupancy at SERT (SERT; subchronic dose used in the mouse OR and object placement tasks, ref Wallace et al., 2014, Waller et al., 2017) | SERT occupancy (SERT; the vortioxetine doses used, ref Stenkrona et al., 2013, Leiser et al., 2014) | occupancy at the 5-HT3 receptor (5-HT3 receptor [2]; 1 mg/kg acute dose, ref Leiser et al.) | occupancy at 5-HT3 receptors (5-HT3 receptor [2]; [3]) [%] | occupancy at 5-HT3 receptors (5-HT3 receptor [2]; [4]) | novel object preference score, vehicle/vortioxetine vs vehicle/vehicle (C57BL/6NCrlBr mice; mice without PCP, 10 mg/kg s.c. bolus then 0.6 g/kg chow) | novel object preference score vs subPCP/vehicle (C57BL/6NCrlBr mice; subPCP/vortioxetine mice, 10 mg/kg s.c. bolus then 0.6 g/kg chow, p < 0.01)
1 | Cl.c1ccc(C2(N3CCCCC3)CCCCC2)cc1 [PCP, 1-(1-phenylcyclohexyl)-piperidine hydrochloride] | significantly lower novel object preference scores | – | – | – | – | – | – | – | – | – | – | – | – | – | – | – | –
2 | Cc1ccc(Sc2ccccc2N2CCNCC2)c(C)c1 [vortioxetine] | – | ≈ 40% | negligible | ≥ 80 | approximately 50% | full occupancy | approximately 10 fold | 60–65% | ≥ 80 | approximately 50% | full occupancy | 50–90% | full occupancy | ≥ 80 | full occupancy | no statistically significant difference | significantly higher novel object preference scores
